Assays:
[1] = tested on: stratum corneum of excised porcine skin; test: Semi-permanent retention of topical mark on excised porcine skin after repeated washing, and localization after bisection (FIG. 7); settings: for retention of the mark on skin after washing: gel dried 10 minutes, washed after 3 hours, washing procedure repeated five times
Excerpt: FIG. 7 is a set of annotated visible and ultraviolet photographs of excised porcine skin areas exposed to the composition described in Example 8 according to the method of Example 10, labeled o-phthalaldehyde, accompanied by a positive control based on genipin and three negative controls based on a commercially available organic and mineral SPF-30 sunscreens and permanent black marker, taken before the skin was washed, then after one wash, after five washes, and after five washes and bisection.
20 mg of 3,6-dihydroxy-4,5-dimethyl-1,2-benzenedicarboxaldehyde was mixed directly into 230 mg of a gel comprising 79.715% v/v water, 20% v/v ethanol, and 0.285% v/v carbomer 940 and stirred mechanically until a homogenous gel was obtained.
Freshly excised porcine skin was allowed to hydrate in reverse-osmosis purified water for 4 h, then it was cut into rectangular samples and stored for 24 hours in a closed container on top of a paper towel saturated with a solution of 90% water and 10% glycerol. The stratum corneum was wiped with a cotton gauze pad saturated with an aqueous solution of lysine at a concentration of 2 wt %. The gel composition prepared as described in […] was scooped onto a spatula, which was used to apply a thin layer of the gel in a circle of approximately 1-cm diameter on the stratum corneum. After allowing the gel to dry on the skin for 10 minutes, the skin sample was returned to the closed container with the saturated paper towel to allow the skin to remain hydrate while the reaction continued to develop. After 3 hours, the skin was removed and washed liberally by scrubbing the skin with a loofah saturated with a soap solution of 10% alcanox in water until a foam lather was formed, rinsed with reverse-osmosis water, and wiped with a paper towel saturated with a 70% isopropanol solution, and finally patted dry with a paper towel. This washing procedure was repeated five times.

[2] = Ultraviolet-visible absorption spectra of solutions of o-phthalaldehyde ultraviolet absorbers vs the parent carboxylic acids (FIG. 4); type: physicochemical; settings: solution; for visible absorption introduced by the 3-(3,4-diformylphenyl)propyl moiety: compared with corresponding carboxylic acids
Excerpt: FIG. 4 is a set of graphs of the ultraviolet-visible absorption spectra of solutions of (a) 4-((3-(2H-benzo[d][1,2,3]triazol-2-yl)-2-hydroxy-5-methylbenzyl)oxy)phthalaldehyde, prepared according to the process described in example 3, and 3-(3-(benzotriazole-2-yl)-5-tert-butyl-4-hydroxyphenyl)propanoic acid, (b) 3-(3-(2H-benzo[d][1,2,3]triazol-2-yl)-5-(tert-butyl)-4-hydroxyphenyl)propanoate, prepared according to the process described in Example 4, and 2-(4-diethylamino-2-hydroxybenzoyl)benzoic acid, (c) 3-(3,4-diformylphenyl)propyl 3-(4-methoxyphenyl)acrylate, prepared according to the process described in example 5, and 4-methoxycinnamic acid.

SMILES	localization / penetration in skin layers ([1]; excessively washed, bisected through to the subcutis)	retention of the mark on skin after washing [1]	alteration of the absorption profiles of the ultraviolet-absorbing moieties by the 3-(3,4-diformylphenyl)propyl moiety [2]	visible absorption introduced by the 3-(3,4-diformylphenyl)propyl moiety [2]
Cc1c(C)c(O)c(C=O)c(C=O)c1O [3,6-dihydroxy-4,5-dimethyl-1,2-benzenedicarboxaldehyde]	localized in the stratum corneum and did not penetrate to lower epidermal or dermal layers of the skin	retained		
CC(C)(C)c1cc(CCC(=O)OCCCc2ccc(C=O)c(C=O)c2)cc(-n2nc3ccccc3n2)c1O [Example 3, 3-(3,4-diformylphenyl)propyl 3-(3-(2H-benzo[d][1,2,3]triazol-2-yl)-5-(tert-butyl)-4-hydroxyphenyl)propanoate]			only minor alteration of the absorption profiles	without introducing substantial visible absorption
CCN(CC)c1ccc(C(=O)c2ccccc2C(=O)OCCCc2ccc(C=O)c(C=O)c2)c(O)c1 [Example 4, 3-(3,4-diformylphenyl)propyl 2-(4-(diethylamino)-2-hydroxybenzoyl)benzoate]			only minor alteration of the absorption profiles	without introducing substantial visible absorption
COc1ccc(C=CC(=O)OCCCc2ccc(C=O)c(C=O)c2)cc1 [Example 5, 3-(3,4-diformylphenyl)propyl 3-(4-methoxyphenyl)acrylate]			only minor alteration of the absorption profiles	without introducing substantial visible absorption
COC(=O)C1=CO[C@@H](O)[C@@H]2C(CO)=CC[C@H]12 [genipin, reference compound]		retained		
